Key:
[1] = target: T1, C-RAF (Homo sapiens, UniProt P04049, Y340E/Y341E); assay: In vitro Raf activity determination (Alpha Screen, biotinylated kinase-dead MEK1 substrate), C-Raf; assay type: biochemical; settings: c-Raf approximately 4 nM; ATP 1 μM; pre-incubation 60 minutes; reaction 1 hour at room temperature
T1 construct: His tag (implied by nickel chromatography) (cleaved yes); StrepII tag (cleaved yes); made in house; host or cells: Sf9 insect cells (baculovirus), CRAF and h14-3-3 zeta co-expressed; MEK1 substrate from E. coli
T1 sequence (P04049 whole entry Y340E/Y341E): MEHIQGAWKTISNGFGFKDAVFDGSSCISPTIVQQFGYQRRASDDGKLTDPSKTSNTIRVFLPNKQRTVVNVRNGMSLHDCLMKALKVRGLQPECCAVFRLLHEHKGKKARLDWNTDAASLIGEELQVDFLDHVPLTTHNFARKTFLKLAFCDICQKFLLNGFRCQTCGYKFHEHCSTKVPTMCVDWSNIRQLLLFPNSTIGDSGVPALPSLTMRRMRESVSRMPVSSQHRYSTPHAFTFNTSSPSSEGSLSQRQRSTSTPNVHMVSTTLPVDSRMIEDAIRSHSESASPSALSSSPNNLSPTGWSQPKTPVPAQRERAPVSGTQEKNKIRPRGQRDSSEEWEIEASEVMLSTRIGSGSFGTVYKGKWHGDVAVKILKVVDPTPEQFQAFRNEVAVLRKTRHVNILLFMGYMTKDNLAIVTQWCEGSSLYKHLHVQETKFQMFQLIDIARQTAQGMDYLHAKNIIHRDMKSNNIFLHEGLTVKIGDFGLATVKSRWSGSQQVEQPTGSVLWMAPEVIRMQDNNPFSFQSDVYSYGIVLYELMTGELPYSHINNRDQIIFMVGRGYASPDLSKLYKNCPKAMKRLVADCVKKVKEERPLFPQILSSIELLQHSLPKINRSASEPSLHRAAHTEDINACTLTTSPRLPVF
T1 sequence (P63104 whole entry partner): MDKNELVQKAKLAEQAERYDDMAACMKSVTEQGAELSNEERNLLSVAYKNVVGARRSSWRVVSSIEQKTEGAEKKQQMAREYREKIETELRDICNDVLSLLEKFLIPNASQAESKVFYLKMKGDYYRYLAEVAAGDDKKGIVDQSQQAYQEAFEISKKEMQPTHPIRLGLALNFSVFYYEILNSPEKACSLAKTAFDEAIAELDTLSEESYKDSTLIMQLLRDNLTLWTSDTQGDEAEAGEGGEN
Procedure, shortened: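 Full-length C-Raf carrying Y340E/Y341E, co-expressed with 14-3-3ζ in Sf9 cells, at approximately 4 nM, with approximately 10 nM biotinylated kinase-dead MEK1 (K97R) and 1 μM ATP, pH 7.5. Compound preincubated 60 min, reaction 1 hour at room temperature. Phospho-MEK read by AlphaScreen; IC50 by non-linear regression.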

[2] = target: T2, b-Raf (V600E) (Homo sapiens, UniProt P15056, V600E); assay: In vitro Raf activity determination (Alpha Screen, biotinylated kinase-dead MEK1 substrate), B-Raf; assay type: biochemical; settings: b-Raf (V600E) approximately 4 pM; ATP 10 μM; pre-incubation 60 minutes; reaction 3 hours at room temperature
T2 construct: made in house
T2 sequence (P15056 whole entry V600E): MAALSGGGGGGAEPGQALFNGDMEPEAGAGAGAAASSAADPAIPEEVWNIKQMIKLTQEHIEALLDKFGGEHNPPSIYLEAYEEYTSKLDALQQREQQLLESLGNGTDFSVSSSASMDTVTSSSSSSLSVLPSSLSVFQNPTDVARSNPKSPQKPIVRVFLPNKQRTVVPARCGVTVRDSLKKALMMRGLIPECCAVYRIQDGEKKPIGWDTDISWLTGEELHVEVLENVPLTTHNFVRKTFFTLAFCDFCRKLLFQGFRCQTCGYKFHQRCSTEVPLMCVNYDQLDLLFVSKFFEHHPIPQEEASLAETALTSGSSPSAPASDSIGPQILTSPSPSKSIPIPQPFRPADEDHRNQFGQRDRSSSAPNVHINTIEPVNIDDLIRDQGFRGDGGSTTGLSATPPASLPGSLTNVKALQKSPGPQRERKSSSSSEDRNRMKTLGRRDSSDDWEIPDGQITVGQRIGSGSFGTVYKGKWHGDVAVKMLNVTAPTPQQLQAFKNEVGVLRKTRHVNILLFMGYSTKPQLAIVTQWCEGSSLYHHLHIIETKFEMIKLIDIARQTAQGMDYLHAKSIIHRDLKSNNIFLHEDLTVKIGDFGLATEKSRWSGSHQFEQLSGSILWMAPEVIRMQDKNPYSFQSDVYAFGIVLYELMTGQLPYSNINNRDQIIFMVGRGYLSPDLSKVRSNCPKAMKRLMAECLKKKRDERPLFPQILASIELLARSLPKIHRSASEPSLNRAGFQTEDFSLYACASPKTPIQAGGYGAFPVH
Procedure, shortened: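 Activated b-Raf(V600E) (~4 pM) pre-incubated 60 min with compound and biotinylated kinase-dead (K97R) MEK1 (~10 nM), then reacted 3 h at room temperature with 10 μM ATP in 50 mM Tris pH 7.5, 15 mM MgCl2, 0.01% BSA, 1 mM DTT. Phospho-MEK detected by AlphaScreen; IC50 by non-linear regression.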

Compound	IC50 [1] [nM]	IC50 [2] [nM]
Cc1ncc(NC(=O)c2ccnc(C(C)(C)C#N)c2)cc1-c1cnc(N2CC(C)(O)C2)c(C#N)c1 [Example 30, N-(5′-cyano-6′-(3-hydroxy-3-methylazetidin-1-yl)-2-methyl-[3,3′-bipyridin]-5-yl)-2-(2-cyanopropan-2-yl) isonicotinamide]	3.69	28.8
CCC(F)(F)c1cc(C(=O)Nc2cnc(C)c(-c3cnc(N4CC(C)(O)C4)c(C#N)c3)c2)ccn1 [Example 192, N-(5′-cyano-6′-(3-hydroxy-3-methylazetidin-1-yl)-2-methyl-[3,3′-bipyridin]-5-yl)-2-(1,1-difluoropropyl) isonicotinamide]	1.15	5.13
Cc1ncc(NC(=O)c2ccnc(C(C)(C)C#N)c2)cc1-c1cnc(N2CCOC[C@H]2C)c(C#N)c1 [Example 79, (R)-N-(5′-cyano-2-methyl-6′-(3-methylmorpholino)-[3,3′-bipyridin]-5-yl)-2-(2-cyanopropan-2-yl)isonicotinamide]	1.51	4.34
Cc1ccc(NC(=O)c2cnnc(C(F)(F)F)c2)cc1-c1cnc(N2CC(C)(O)C2)c(C#N)c1 [Example 213]	1.78	8.79
Cc1ncc(NC(=O)c2ccnc(C(C)(C)C#N)c2)cc1-c1cnc(N2CCO[C@H](C)C2)c(C#N)c1 [Example 75, (R)-N-(5′-cyano-2-methyl-6′-(2-methylmorpholino)-[3,3′-bipyridin]-5-yl)-2-(2-cyanopropan-2-yl)isonicotinamide]	1.2	3.79
Cc1ncc(NC(=O)c2ccnc(C(C)(C)C#N)c2)cc1-c1cnc(N)c(C#N)c1 [Example 38, N-(6′-amino-5′-cyano-2-methyl-[3,3′-bipyridin]-5-yl)-2-(2-cyanopropan-2-yl)isonicotinamide]	1.81	16.4
Cc1ncc(NC(=O)c2ccnc(C(C)(C)C#N)c2)cc1-c1cnc(Oc2ccccn2)c(C#N)c1 [Example 54, N-(5′-cyano-2-methyl-6′-(pyridin-2-yloxy)-[3,3′-bipyridin]-5-yl)-2-(2-cyanopropan-2-yl)isonicotinamide]	7.88	34.7
Cc1ncc(NC(=O)c2ccnc(C(C)(C)C#N)c2)cc1-c1cnc(N2CCS(=O)(=O)CC2)c(C#N)c1 [Example 55, N-(5′-cyano-6′-(1,1-dioxidothiomorpho-lino)-2-methyl-[3,3′-bipyridin]-5-yl)-2-(2-cyanopropan-2-yl)isonicotinamide]	2.36	11.6
Cc1ncc(NC(=O)c2ccnc(C(F)(F)F)c2)cc1-c1cnc(OC2COC2)c(C#N)c1 [Example 95, N-(5′-cyano-2-methyl-6′-(oxetan-3-yloxy)-[3,3′-bipyridin]-5-yl)-2-(trifluoromethyl) isonicotinamide]	2.34	12.8
Cc1ncc(NC(=O)c2ccnc(C(C)(C)O)c2)cc1-c1cnc(N(C)C)c(C#N)c1 [Example 272, N-(5′-cyano-6′-(dimethylamino)-2-methyl-[3,3′-bipyridin]-5-yl)-2-(2-hydroxypropan-2-yl)isonicotinamide]	2.16	18.4

More lines, now with the values ahead:

IC50 [1] [nM]	IC50 [2] [nM]	Compound
0.125	0.991	Cc1ccc(C(=O)Nc2cccc(C(F)(F)F)c2)cc1-c1cnc(N)c(C#N)c1 [Example 3, 3-(6-amino-5-cyanopyridin-3-yl)-4-methyl-N-(3-(trifluoromethyl)phenyl)benzamide]
0.314	1.25	Cc1ccc(NC(=O)c2ccnc(C(F)(F)F)c2)cc1-c1cnc(NC(C)C)c(C#N)c1 [Example 22, N-(3-(5-cyano-6-(isopropylamino)pyridin-3-yl)-4-methylphenyl)-2-(trifluoromethyl) isonicotinamide]
0.886	3.07	Cc1ccc(NC(=O)c2cnnc(C(C)(C)C#N)c2)cc1-c1cnc(N2CCNCC2)c(C#N)c1 [Example 211, N-(3-(5-cyano-6-(piperazin-1-yl)pyridin-3-yl)-4-methylphenyl)-6-(2-cyanopropan-2-yl)pyridazine-4-carboxamide]
0.15	1.18	Cc1ccc(NC(=O)c2cccc(C(F)(F)F)c2)cc1-c1cnc(-c2cnn(C)c2)c(C#N)c1 [Example 123, N-(3-(5-cyano-6-(1-methyl-1H-pyrazol-4-yl)pyridin-3-yl)-4-methylphenyl)-3-(trifluoromethyl) benzamide]
0.0967	0.397	Cc1ccc(NC(=O)c2cnnc(C(F)(F)F)c2)cc1-c1cnc(N2CCOCC2)c(C#N)c1 [Example 208, N-(3-(5-cyano-6-morpholinopyridin-3-yl)-4-methylphenyl)-6-(trifluoromethyl) pyridazine-4-carboxamide]
0.157	1.59	Cc1ccc(NC(=O)c2ccnc(C(F)F)c2)cc1-c1cnc(N2CCNCC2)c(C#N)c1 [Example 160, N-(3-(5-cyano-6-(piperazin-1-yl)pyridin-3-yl)-4-methylphenyl)-2-(difluoromethyl) isonicotinamide]
0.879	4.83	Cc1ncc(NC(=O)c2ccnc(C(C)C)c2)cc1-c1cnc(C2CCOCC2)c(C#N)c1 [Example 130, N-(5′-cyano-2-methyl-6′-(tetrahydro-2H-pyran-4-yl)-[3,3′-bipyridin]-5-yl)-2-isopropyl-isonicotinamide]
0.379	2.18	CNc1ncc(-c2cc(NC(=O)c3ccnc(C(C)(C)C#N)c3)ccc2C)cc1C#N [Example 6, N-(3-(5-cyano-6-(methylamino)pyridin-3-yl)-4-methylphenyl)-2-(2-cyanopropan-2-yl)isonicotinamide]
1.13	5.95	Cc1ncc(NC(=O)c2ccnc(C(F)(F)F)c2)cc1-c1cnc(S(C)(=O)=O)c(C#N)c1 [Example 45, N-(5′-cyano-2-methyl-6′-(methylsulfonyl)-[3,3′-bipyridin]-5-yl)-2-(trifluoromethyl) isonicotinamide]
0.262	1.33	Cc1ncc(NC(=O)c2ccnc(C3(C#N)CC3)c2)cc1-c1cnc(N2CCOCC2)c(C#N)c1 [Example 146, N-(5′-cyano-2-methyl-6′-morpholino-[3,3′-bipyridin]-5-yl)-2-(1-cyanocyclopropyl) isonicotinamide]
0.386	3.44	Cc1ccc(NC(=O)c2cccc(C(F)(F)F)c2)cc1-c1cnc(NC(C)C)c(C#N)c1 [Example 18, N-(3-(5-cyano-6-(isopropylamino)pyridin-3-yl)-4-methylphenyl)-3-(trifluoromethyl) benzamide]
0.154	0.507	Cc1ccc(NC(=O)c2ccnc(C(F)F)c2)cc1-c1cnc(NC2CCOCC2)c(C#N)c1 [Example 169, N-(3-(5-cyano-6-((tetrahydro-2H-pyran-4-yl)amino)pyridin-3-yl)-4-methylphenyl)-2-(difluoromethyl) isonicotinamide]
0.223	0.902	Cc1ncc(NC(=O)c2ccnc(C(F)(F)F)c2)cc1-c1cnc(N2CCOCC2)c(C#N)c1 [Example 68, N-(5′-cyano-2-methyl-6′-morpholino-[3,3′-bipyridin]-5-yl)-2-(trifluoromethyl) isonicotinamide]
1.08	5	Cc1ncc(NC(=O)c2cc(C(F)(F)F)ccn2)cc1-c1cnc(N2CC(C)(O)C2)c(C#N)c1 [Example 225, N-(5′-cyano-6′-(3-hydroxy-3-methylazetidin-1-yl)-2-methyl-[3,3′-bipyridin]-5-yl)-4-(trifluoromethyl) picolinamide]
